Experimental data from patent US8653112B2, “Substituted pyrazoles as estrogen receptor ligands” (Karo Bio AB, priority 2009, dated 2014).

Target: T1, human ERβ (ERβ-LBD) (Homo sapiens, UniProt Q92731)
T1 construct: ERβ (ERβ-LBD, pET-N-AT #1, aa 255-530); biotinylation tag (in vivo biotinylated, pBirA co-expression); made in house; host or cells: E. coli BL21 (DE3) pBirA
Assay: Binding assay 1: estrogen receptor binding assay (SPA, 3H-E2 displacement), ERβ
Conditions: displacement of 3H-E2, read-out: binding affinity to the estrogen receptor β-subtype, IC50
Experimental: Binding Assay 1: Estrogen Receptor Binding Assay
The estrogen receptor ligand binding assays are designed as scintillation proximity assays (SPA), employing the use of tritiated estradiol (^3H-E2) and recombinant expressed biotinylated estrogen receptor binding domains. The binding domains of human ERα (ERα-LBD, pET-N-AT #1, aa 301-595) and ERβ (ERβ-LBD, pET-N-AT #1, aa 255-530) proteins are produced in E. coli ((BL21, (DE3), pBirA)) at 22 C in 2×LB medium supplemented with 50 uM biotin. After 3 h of IPTG induction (0.55 mM), cells are harvested by centrifugation at 7300×g for 15 min and cell pellets stored frozen in −20C. Extraction of ERα and ERβ are performed using 5 g of cells suspended in 50 mL of extraction buffer (50 mM Tris, pH 8.0, 100 mM KCl, 4 mM EDTA, 4 mM DDT and 0.1 mM PMSF). The cell suspension is run twice through a Microfluidizer M-110L (Microfluidics) and centrifuged at 15,000×g for 60 min. The supernatant is aliquoted and stored in −70C.
Dilute ERαLBD or ERβ-LBD extracts in assay buffer (18 mM K2HPO4, 2 mM KH2PO4, 20 mM NasMoO4, 1 mM EDTA, 1 mM TCEP) 1:676 and 1:517 for alpha and beta respectively. The diluted receptor concentrations should be 900 fmol/L. Preincubate the extracts with streptavidin coated polyvinyltoluene SPA beads (RPNQ0007, GE Healthcare) at a concentration of 0.43 mg/mL for 1 hr at room temperature.
Test compounds are evaluated over a range of concentrations from 157 μM to 37.5 pM. The test compound stock solutions should be made in 100% DMSO at 5× of the final concentration desired for testing in the assay. The amount of DMSO in the test wells of the 384 well plate will be 20%. Add 18 μl aliquots of test compounds to the assay plates followed by 35 μl of the preincubated receptor/SPA bead mix and finally add 35 μl of 3 nM ^3H-E2. Cover the plates with a plastic sealer, centrifuge for 1 minute at 1000 rpm and equilibrate over night on a shaker at room temperature. The following morning, centrifuge the plates 5 minutes at 2000 rpm and measure on a plate scintillation counter e.g. a PerkinElmer Microbeta 1450 Trilux.
For compounds able to displace 3[H]-E2 from the receptor an IC50-value (the concentration required to inhibit 50% of the binding of 3[H]-E2) is determined by a non-linear four parameter logistic model; b=((bmax−bmin)/(1+(1/IC50)S))+bmin I is added concentration of binding inhibitor, IC50 is the concentration of inhibitor at half maximal binding and S is a slope factor. The Microbeta-instrument generates the mean cpm (counts per minute) value/minute and corrects for individual variations between the detectors thus generating corrected cpm values.

T1 sequence (Q92731 255-530): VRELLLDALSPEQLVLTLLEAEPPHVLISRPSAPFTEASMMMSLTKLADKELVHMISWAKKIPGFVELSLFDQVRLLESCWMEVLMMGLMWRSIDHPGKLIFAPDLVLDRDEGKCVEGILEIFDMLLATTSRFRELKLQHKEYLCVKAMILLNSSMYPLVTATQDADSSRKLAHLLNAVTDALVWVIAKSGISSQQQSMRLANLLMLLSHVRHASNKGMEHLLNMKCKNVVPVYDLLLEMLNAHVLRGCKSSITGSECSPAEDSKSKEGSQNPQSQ

Row | Structure (SMILES) | IC50 [nM]
1 | Cn1nc(-c2ccc(O)cc2)c(-c2c(F)cccc2F)c1C=NO (single isomer, unassigned) [Example 44, 4-(2,6-difluorophenyl)-3-(4-hydroxyphenyl)-1-methyl-1H-pyrazole-5-carbaldehyde oxime] | 1 to 100
2 | Cc1noc(C)c1-c1c(C=NO)c(C(C)C)nn1-c1ccc(O)cc1 (single isomer, unassigned) [Example 18, 5-(3,5-dimethylisoxazol-4-yl)-1-(4-hydroxyphenyl)-3-isopropyl-1H-pyrazole-4-carbaldehyde oxime] | 1 to 100
3 | CCc1nn(-c2ccc(O)cc2F)c(-c2c(C)noc2C)c1C=NO (single isomer, unassigned) [Example 27, 5-(3,5-dimethylisoxazol-4-yl)-3-ethyl-1-(2-fluoro-4-hydroxyphenyl)-1H-pyrazole-4-carbaldehyde oxime] | 1 to 100
4 | Cc1noc(C)c1-c1c(-c2ccc(O)cc2F)nn(C)c1C=NO (single isomer, unassigned) [Example 48, 4-(3,5-dimethylisoxazol-4-yl)-3-(2-fluoro-4-hydroxyphenyl)-1-methyl-1H-pyrazole-5-carbaldehyde oxime] | 1 to 100

Continued, values first:

Row | IC50 [nM] | Structure (SMILES)
5 | 1 to 100 | Cn1nc(-c2ccc(O)cc2)c(-c2c(Cl)cccc2Cl)c1C=NO (single isomer, unassigned) [Example 45, 4-(2,6-dichlorophenyl)-3-(4-hydroxyphenyl)-1-methyl-1H-pyrazole-5-carbaldehyde oxime]
6 | 1 to 100 | Cc1noc(C)c1-c1c(-c2ccc(O)cc2)nn(C)c1C=NO (single isomer, unassigned) [Example 12, 4-(3,5-dimethylisoxazol-4-yl)-3-(4-hydroxyphenyl)-1-methyl-1H-pyrazole-5-carbaldehyde oxime]
7 | 1 to 100 | Cc1cc(O)ccc1-c1nn(C)c(/C=N/O)c1-c1c(C)noc1C (single isomer, unassigned) [Example 63, (E)-4-(3,5-dimethylisoxazol-4-yl)-3-(4-hydroxy-2-methylphenyl)-1-methyl-1H-pyrazole-5-carbaldehyde oxime]
